Patent US20200404909A1, “Fatty acid derivatives for use as herbicides” (Clariant International Ltd., priority 2018, published 2020)

Experiments:
[1] = system: monocotyledonous and dicotyledonous harmful plants (ABUTH, ALOMY, AMARE, DIGSA, ERICA, LOLPE, SOLNI, VIOAR); assay: Greenhouse trials, post emergence herbicidal activity (percent control); assay type: in vivo; settings: 5-20% w/v of applied substances, spray volume 500-1000 liters per hectare, broadcast foliar method
Text: Standard post emergence herbicide application procedures were used, as described below, to apply inventive compounds and formulations listed in the tables 1 and 2, as well as the reference materials.
Seed of monocotyledonous and dicotyledonous harmful plants such as Abutilon theophrasti (ABUTH), Alopecurus myosuroides (ALOMY), Amaranthus retroflexus (AMARE), Digitaria Sanguinalis (DIGSA), Erigeron canadensis (ERICA), Lolium perenne (LOLPE), Solanun nigrum (SOLNI), Viola arvensis (VIOAR) were sowed in 18 cm^2 pots. The plants were placed in a greenhouse under controlled environmental conditions, and sub-irrigation. About one week after emergence, seedlings were thinned as needed, including removal of any unhealthy or abnormal plants, to create a uniform series of test pots.
The plants were maintained for the duration of the test in the greenhouse, where they received a mean of 70 μmol m^−2 s^−1 of light per day/night. Temperatures averages about 24° C. during the day and about 20° C. during the night. Plants were sub-irrigated throughout the test to ensure adequate soil moisture levels.
Pots were assigned to different treatment in a randomized experimental design. A set of pots was left untreated as a reference against which effects of the treatments could later be evaluated. Applications of tested formulations were made in a spray cabin model SPK B CT02 designed by CheckTec using the following parameters: • nozzle Lechler LU-120-08, 1000 L/ha, 3 bars, 0.56 m/s • nozzle Lechler LU-120-06, 500 L/ha, 3 bars, 0.7 m/s.
The distance of the nozzle from the plants was between 50 to 53 cms.
After treatment, pots were returned to the greenhouse until ready for evaluation (6 hours after treatment (6HAT), 1 day after treatment (1DAT), and 2 days after treatment (2DAT).
For evaluation of herbicidal effectiveness, all plants in the test were examined by a single technician, who recorded percent control, a visual measurement of the effectiveness of each treatment by comparison with untreated plants. […] The reported % control values represent the average for all replicates of each treatment.

[2] = system: Fruit trees (apple trees); assay: Plant growth regulator activity: blossom thinning in orchards (greenhouse and field trial); assay type: in vivo; settings: A1 diluted in water 1-10%, about 2 to about 15 liters per apple tree
Text: Fruit trees were sprayed with substance A1 (Pelargonic acid 6 EO ester methyl ether), several days before the expected full blossoming in the greenhouse, and also in a field trial to test the blossom thinning, which is used to increase the fruit production.
Plots (3 trees per plot in field trials; 1 tree per plot in greenhouse) were assigned to different treatments in a randomized experimental design. One plot was left untreated as a reference against which effects of the treatments could later be evaluated.
The test substance A1 was diluted in water in a range of 1-10% and the spray solution was sprayed in an amount of about 2 to about 15 liters per apple tree (height: about 2-2.5 m, width: about 1-1.5 m). The Application was made with a high-pressure power backpack sprayer manufactured by SOLO® Kleinmotoren GmbH.
The treated trees were evaluated regarding flower thinning effect, but also regarding undesired effects by chemical injury such as leaf browning, leaf malformation, etc.

[3] = Volatility from spray deposit on non-permeable leaf cuticles; assay type: physicochemical; settings: test substances 50 g/L, pelargonic acid 30 g/L, Vorox 130 g/L
Description: (§1) The volatility of the test substances from the spray deposit was measured time dependent. All measurements have been carried out using a concentration of 50 g/L of the test substances in the application solution. The reference pelargonic acid was used at a concentration of 30 g/L and the commercial benchmark Vorox was applied at a concentration of 130 g/L. The […] drop volumes of 10 μl of the spray liquids which amounts to 500 μg of test substance were then applied on two different substrates. An inert wettable synthetic substrates and non-permeable leaf cuticles were used as substrates. […] After evaporation of drop water, the substrates were weighed to obtain the initial weight and placed under a sealed box with defined air suction output volume of 30 m^3/h. The volatility has been determined after the desired measurement time of 4 h, 24 h and 48 h by weighing of the substrates to obtain the remaining weight of the test substances. The fraction of remaining test substance in % is obtained by the ratio of remaining test substance compared to the initial weight of test substance. The volatilized amount was calculated by subtraction of the remaining test substance of the initial applied amount. The volatilized fraction of test substance in % is obtained by the ratio of volatilized test substance compared to the initial weight of test substance. A substrate without test substance is used as reference to account for changes in environmental conditions such as humidity. Concentrations used are based on ca. 3% pelargonic acid equivalent

[4] = Volatility from spray deposit on inert wettable synthetic substrates; assay type: physicochemical; settings: test substances 50 g/L, pelargonic acid 30 g/L, Vorox 130 g/L
Description: as §1

[5] = Spray liquids in water: appearance and stability after 24 h; assay type: physicochemical; settings: spray liquid in water, amount 5.0 % by wt., after 24 h
Description: The inventive compounds were used to make spray liquids at relevant use concentration. These spray liquids are produced by mixing the various test substances in water, and the appearance and stability of the spray liquid were assessed after 24 h.
The inventive compounds can be used as 100% substances without need for additional additives or formulation aids to obtain stable spray liquids. They are either water soluble and form clear homogeneous spray liquid or self-emulsifying in the spray liquid and form cloudy homogeneous emulsions that are stable over 24 h. […] Stable spray liquids can only be achieved with pelargonic acid when they are formulated with appropriate emulsifiers and other formulation aids like in the commercial benchmark Vorox.

CCCCCCCCC(=O)OCCOCCOCCOCCOCCOCCOC [A1, Pelargonic acid 6 EO ester methyl ether]
herbicidal activity against a plurality of the harmful plants [1]: moderately effective to highly effective
herbicidal activity against several, in particular three or more, of the mentioned harmful plants [1]: highly effective
undesired effects by chemical injury (leaves, branches, tree) ([2]; evaluated after treatment): without significantly harming the tree
flower thinning effect ([2]; sprayed several days before full blossoming): excellent results as flower thinning agent
Volatilized fraction 4 h ([3]; pH 4, 4 h): 1.5%
Volatilized fraction 24 h ([3]; pH 4, 24 h): 4.8%
Volatilized fraction 48 h ([3]; pH 4, 48 h): 5.2%
Volatilized fraction 4 h ([4]; pH 4, 4 h): −0.2%
Volatilized fraction 24 h ([4]; pH 4, 24 h): 0.6%
Volatilized fraction 48 h ([4]; pH 4, 48 h): 1.2%
Appearance [5]: Clear solution
